# Structures can show the parent of a compound that is named as a salt.
# What was measured:
# human EP1 receptor = target: T1, human EP1 receptor (Homo sapiens, UniProt P34995); test: human EP1 calcium mobilisation assay; assay type: cell-based; conditions: for Ki: human EP1, CHO-K1 cells, antagonism of PGE2, averages of a number of experiments, read-out: functional pKi value (converted)
# T1 construct: expressed in transfected cells; host or cells: CHO-K1
# T1 sequence (P34995 1-402): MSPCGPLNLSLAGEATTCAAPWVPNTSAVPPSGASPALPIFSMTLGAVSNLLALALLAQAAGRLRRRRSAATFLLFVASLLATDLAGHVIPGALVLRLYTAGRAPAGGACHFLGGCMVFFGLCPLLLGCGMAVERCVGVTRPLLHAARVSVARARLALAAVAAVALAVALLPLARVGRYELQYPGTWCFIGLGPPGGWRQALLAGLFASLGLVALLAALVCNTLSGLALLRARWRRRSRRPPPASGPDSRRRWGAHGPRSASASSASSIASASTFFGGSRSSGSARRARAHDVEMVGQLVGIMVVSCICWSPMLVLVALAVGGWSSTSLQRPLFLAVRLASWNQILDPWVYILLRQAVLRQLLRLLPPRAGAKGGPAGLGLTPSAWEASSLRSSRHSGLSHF
# Procedure: (§1) Briefly, the antagonist properties of compounds are assessed by their ability to inhibit the mobilisation of intracellular calcium ([Ca^2+]i) in response to activation of EP1 or EP3 receptors by the natural agonist hormone prostaglandin E2 (PGE2). Increasing concentrations of antagonist reduce the amount of calcium that a given concentration of PGE2 can mobilise. The net effect is to displace the PGE2 concentration-effect curve to higher concentrations of PGE2. The amount of calcium produced is assessed using a calcium-sensitive fluorescent dye such as Fluo-4, AM and a suitable instrument such as a Fluorimetric Imaging Plate Reader (FLIPR). Increasing amounts of [Ca^2+]i produced by receptor activation increase the amount of fluorescence produced by the dye and give rise to an increasing signal. The signal may be detected using the FLIPR instrument and the data generated may be analysed with suitable curve-fitting software.
# (§2) The human EP1 or EP3 calcium mobilisation assay (hereafter referred to as ‘the calcium assay’) utilises Chinese hamster ovary-K1 (CHO-K1) cells into which a stable (pCIN; BioTechniques 20 (1996): 102-110) vector containing either EP1 or EP3 cDNA has previously been transfected. Cells are cultured in suitable flasks containing culture medium such as DMEM:F-12 supplemented with 10% v/v foetal calf serum, 2 mM L-glutamine, 0.25 mg/ml geneticin, 100 μM flurbiprofen and 10 μg/ml puromycin.
# (§3) For assay, cells are harvested using a proprietary reagent that dislodges cells such as Versene. Cells are re-suspended in a suitable quantity of fresh culture media for introduction into a 384-well plate. Following incubation for 24 hours at 37° C. the culture media is replaced with a medium containing Fluo-4 and the detergent pluronic acid, and a further incubation takes place. Concentrations of compounds are then added to the plate in order to construct concentration-effect curves. This may be performed on the FLIPR in order to assess the agonist properties of the compounds. Concentrations of PGE2 are then added to the plate in order to assess the antagonist properties of the compounds.
# (§4) The data so generated may be analysed by means of a computerised curve-fitting routine. The concentration of compound that elicits a half-maximal inhibition of the calcium mobilisation induced by PGE2 (pIC50) may then be estimated.
# human EP3 receptor = target: T2, human EP3 receptor (Homo sapiens, UniProt P43115); test: human EP3 calcium mobilisation assay; assay type: cell-based; conditions: human EP3, CHO-K1 cells, antagonism of PGE2; averages of a number of experiments; read-out: functional pKi value (converted)
# T2 construct: expressed in transfected cells; host or cells: CHO-K1
# T2 sequence (P43115 1-390): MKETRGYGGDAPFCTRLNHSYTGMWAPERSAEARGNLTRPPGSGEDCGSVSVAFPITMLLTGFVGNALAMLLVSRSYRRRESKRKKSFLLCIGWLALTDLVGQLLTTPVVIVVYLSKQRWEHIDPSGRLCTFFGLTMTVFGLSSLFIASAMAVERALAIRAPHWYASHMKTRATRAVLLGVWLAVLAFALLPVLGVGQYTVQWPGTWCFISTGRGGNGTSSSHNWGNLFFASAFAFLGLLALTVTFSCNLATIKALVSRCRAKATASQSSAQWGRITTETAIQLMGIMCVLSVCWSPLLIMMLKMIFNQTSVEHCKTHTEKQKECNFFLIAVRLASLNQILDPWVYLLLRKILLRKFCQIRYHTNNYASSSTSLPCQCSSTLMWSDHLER
# Procedure: as §1, §2, §3, §4
# EP1 receptor [1] = target: T3, EP1 receptor (Rattus norvegicus, UniProt P70597); design: host or cells: rat, in vivo; conditions: chronic constriction injury; cited from earlier work
# T3 sequence (P70597 1-405): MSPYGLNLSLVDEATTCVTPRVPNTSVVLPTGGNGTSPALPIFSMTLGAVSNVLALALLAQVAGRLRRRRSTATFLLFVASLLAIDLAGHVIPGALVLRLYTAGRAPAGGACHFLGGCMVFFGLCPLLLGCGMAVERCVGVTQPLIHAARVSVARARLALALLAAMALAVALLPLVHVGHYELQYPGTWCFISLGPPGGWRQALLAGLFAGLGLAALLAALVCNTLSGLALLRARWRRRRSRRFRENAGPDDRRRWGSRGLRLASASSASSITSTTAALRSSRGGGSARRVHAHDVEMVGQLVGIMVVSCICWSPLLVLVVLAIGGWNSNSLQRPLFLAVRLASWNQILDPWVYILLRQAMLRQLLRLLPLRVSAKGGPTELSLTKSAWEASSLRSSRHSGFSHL
# EP1 receptor [2] = target: T3, EP1 receptor; design: host or cells: rodent, in vivo; conditions: rodent, post-operative pain; cited from earlier work
# [3] = target: T4, human prostanoid EP1 receptor (Homo sapiens, UniProt P34995); test: Binding assay for the human prostanoid EP1 receptor (competition with [3H]-PGE2); conditions: [3H]-PGE2 competition, human EP1, CHO-K1 membranes; averages of a number of experiments; read-out: pIC50 value (converted)
# T4 construct: expressed in transfected cells; host or cells: CHO-K1 (membrane fraction)
# T4 sequence (P34995 1-402): T1 sequence (P34995 1-402)
# Procedure: Competition assay using [^3H]-PGE2.
# Compound potencies are determined using a radioligand binding assay. In this assay compound potencies are determined from their ability to compete with tritiated prostaglandin E2 ([^3H]-PGE2) for binding to the human EP1 receptor.
# This assay utilises Chinese hamster ovary-K1 (CHO-K1) cells into which a stable vector containing the EP1 cDNA has previously been transfected. Cells are cultured in suitable flasks containing culture medium such as DMEM:F-12 supplemented with 10% v/v foetal calf serum, 2 mM L-glutamine, 0.25 mg/ml geneticin, 10 μg/ml puromycin and 10 μM indomethacin.
# Cells are detached from the culture flasks by incubation in calcium and magnesium free phosphate buffered saline containing 1 mM disodium ethylenediaminetetraacetic acid (Na2EDTA) and 10 μM indomethacin for 5 min. The cells are isolated by centrifugation at 250×g for 5mins and suspended in an ice cold buffer such as 50 mM Tris, 1 mM Na2EDTA, 140 mM NaCl, 10 μM indomethacin (pH 7.4). The cells are homogenised using a Polytron tissue disrupter (2×10 s burst at full setting), centrifuged at 48,000×g for 20mins and the pellet containing the membrane fraction is washed (optional) three times by suspension and centrifugation at 48,000×g for 20mins. The final membrane pellet is suspended in an assay buffer such as 10 mM 2-[N-morpholino]ethanesulphonic acid, 1 mM Na2EDTA, 10 mM MgCl2 (pH 6). Aliquots are frozen at −80° C. until required.
# For the binding assay the cell membranes, competing compounds and [^3H]-PGE2 (3 nM final assay concentration) are incubated in a final volume of 100 μl for 30 min at 30° C. All reagents are prepared in assay buffer. Reactions are terminated by rapid vacuum filtration over GF/B filters using a Brandell cell harvester. The filters are washed with ice cold assay buffer, dried and the radioactivity retained on the filters is measured by liquid scintillation counting in Packard TopCount scintillation counter.
# The data are analysed using non linear curve fitting techniques to determine the concentration of compound producing 50% inhibition of specific binding (IC50).
Structure (SMILES),Ki (human EP1 receptor),Ki (human EP3 receptor),hyperalgesia and allodynia (EP1 receptor [1]),mechanical hyperalgesia (EP1 receptor [2]),IC50 [3],"IC50 (human EP1 receptor; human EP1 calcium mobilisation assay, read-out: pIC50 values (converted))"
"O=C(Nc1cccc(Cc2cc(Cl)ccc2OCc2ccccc2)n1)C1CCOCC1 [Example 14, N-[6-({5-Chloro-2-[(phenylmethyl)oxy]phenyl}methyl)-2-pyridinyl]tetrahydro-2H-pyran-4-carboxamide]",≤ 316 nM,≤ 3160 nM,,,,
"CC(C)COc1ccc(Cl)cc1Cc1cccc(-c2nc3c(ccc4nn[nH]c43)[nH]2)n1 [Example 25, 7-[6-({5-Chloro-2-[(2-methylpropyl)oxy]phenyl}methyl)-2-pyridinyl]-1,6-dihydroimidazo[4,5-e][1,2,3]benzotriazolehydrochloride]",≤ 316 nM,≤ 1000 nM,,,,
Cc1cc(Cl)ccc1S(=O)(=O)NC[C@H]1C2CCC(CC2)[C@@H]1/C=C\CCCC(=O)O [ONO-8711],,,reduces hyperalgesia and allodynia,inhibits mechanical hyperalgesia,,
"CC(C)COc1ccc(Cl)cc1Cc1cccc(-c2nc3ccc(CN(C)C)cc3[nH]2)n1 [Example 51, ({2-[6-({5-Chloro-2-[(2-methylpropyl)oxy]phenyl}methyl)-2-pyridinyl]-1H-benzimidazol-5-yl}methyl)dimethylaminehydrochloride]",≤ 316 nM,≤ 3160 nM,,,≤ 100 nM,
"CC(C)(C)NC(=O)c1cccc(Cc2cc(Cl)ccc2OCc2ccccc2)n1 [Example 8, 6-({5-Chloro-2-[(phenylmethyl)oxy]phenyl}methyl)-N-(1,1-dimethylethyl)-2-pyridinecarboxamide]",,≤ 3160 nM,,,,> 10000 nM
"Clc1ccc(OCc2ccccc2)c(Cc2cccc(-c3nc4cncnc4[nH]3)n2)c1 [Example 33, 8-[6-({5-Chloro-2-[(phenylmethyl)oxy]phenyl}methyl)-2-pyridinyl]-1H-purinehydrochloride]",≤ 316 nM,≤ 1000 nM,,,≤ 100 nM,
"Clc1ccc(OCc2ccccc2)c(Cc2cccc(-c3nc4cc5cn[nH]c5cc4[nH]3)n2)c1 [Example 39, 6-[6-({5-Chloro-2-[(phenylmethyl)oxy]phenyl}methyl)-2-pyridinyl]-1,5-dihydroimidazo[4,5-f]indazolehydrochloride]",≤ 316 nM,≤ 3160 nM,,,≤ 100 nM,
"CC(C)COc1ccc(Cl)cc1Cc1cccc(-c2nc3ccc(CN4CCCC4)cc3[nH]2)n1 [Example 49, 2-[6-({5-Chloro-2-[(2-methylpropyl)oxy]phenyl}methyl)-2-pyridinyl]-5-(1-pyrrolidinylmethyl)-1H-benzimidazole hydrochloride]",≤ 10000 nM,≤ 3160 nM,,,,
"CC(C)COc1ccc(Cl)cc1Cc1cccc(-c2nc3ncccc3[nH]2)n1 [Example 21, 2-[6-({5-Chloro-2-[(2-methylpropyl)oxy]phenyl}methyl)-2-pyridinyl]-1H-imidazo[4,5-b]pyridine hydrochloride]",≤ 316 nM,≤ 3160 nM,,,≤ 100 nM,
"CC(C)COc1ccc(Cl)cc1Cc1cccc(-c2nc3cc4cnn(C)c4cc3[nH]2)n1 [Example 23, 6-[6-({5-Chloro-2-[(2-methylpropyl)oxy]phenyl}methyl)-2-pyridinyl]-1-methyl-1,5-dihydroimidazo[4,5-f]indazolehydrochloride]",≤ 316 nM,≤ 1000 nM,,,,
"Clc1ccc(OCc2ccccc2)c(Cc2cccc(-c3ncc[nH]3)n2)c1 [Example 43, 2-({5-Chloro-2-[(phenylmethyl)oxy]phenyl}methyl)-6-(1H-imidazol-2-yl)pyridine Hydrochloride]",≤ 316 nM,≤ 1000 nM,,,≤ 100 nM,
"CC(C)NC(=O)c1cccc(Cc2cc(Cl)ccc2OCc2ccccc2)n1 [Example 9, 6-({5-Chloro-2-[(phenylmethyl)oxy]phenyl}methyl)-N-(1-methylethyl)-2-pyridinecarboxamide]",≤ 316 nM,≤ 1000 nM,,,,

# Reference: US20090099177A1, “PYRIDYL COMPOUNDS” (priority 2006, published 2009)
